From patent publication US20250171423A1, “PHARMACEUTICAL COMPOUNDS FOR THE TREATMENT OF COMPLEMENT MEDIATED DISORDERS” (Achillion Pharmaceuticals, Inc., priority 2020, published 2025)

Biological target: T1, Human complement C1s enzyme (Homo sapiens, UniProt P09871)
T1 construct: purified from human serum, Complement Technology, Inc; purchased Complement Technology, Inc; host or cells: human serum
T1 sequence (P09871 438-688 limits assumed): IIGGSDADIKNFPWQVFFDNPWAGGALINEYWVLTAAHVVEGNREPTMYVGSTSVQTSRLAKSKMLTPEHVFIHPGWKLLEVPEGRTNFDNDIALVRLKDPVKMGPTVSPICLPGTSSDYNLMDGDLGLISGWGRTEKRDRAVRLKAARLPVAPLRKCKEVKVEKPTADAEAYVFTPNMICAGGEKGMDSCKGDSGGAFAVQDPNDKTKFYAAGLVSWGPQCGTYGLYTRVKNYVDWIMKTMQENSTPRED
T1 sequence (P09871 16-437 partner limits assumed): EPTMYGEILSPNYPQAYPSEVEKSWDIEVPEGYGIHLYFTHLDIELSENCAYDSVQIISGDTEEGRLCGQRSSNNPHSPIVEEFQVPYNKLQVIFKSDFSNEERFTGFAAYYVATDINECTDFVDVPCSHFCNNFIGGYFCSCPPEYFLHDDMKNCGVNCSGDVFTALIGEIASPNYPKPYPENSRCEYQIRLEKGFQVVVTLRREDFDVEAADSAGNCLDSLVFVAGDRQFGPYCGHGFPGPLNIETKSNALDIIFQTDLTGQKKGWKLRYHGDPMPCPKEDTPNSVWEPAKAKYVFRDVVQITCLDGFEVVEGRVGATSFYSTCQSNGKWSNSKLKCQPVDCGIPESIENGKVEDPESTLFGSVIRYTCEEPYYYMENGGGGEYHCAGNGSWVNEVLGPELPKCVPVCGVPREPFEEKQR
Assay: Human C1s Enzyme Assay
Type: biochemical
Settings: human C1s 1.16 nM, 5 min preincubation, substrate Z-L-Lys-SBzl 100 μM, A405; read-out: C1s Protease Activity
Method in brief: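 IC50 values were fitted by nonlinear regression to rates measured as A405 every 30 s for 30 min. The thioester substrate Z-L-Lys-SBzl and Ellman's reagent were each at 100 μM. Serum-derived C1s at 1.16 nM final had 5 min of room-temperature preincubation with compound (pH 7.5 Tris buffer, 1 M NaCl).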

IC50 | Compound
> 1000 nM | C[C@@]12C[C@@H]1N(C(=O)CNC(=O)c1ccc(Oc3ccccc3)cc1)[C@H](C(=O)NS(=O)(=O)c1cc(C(=N)N)cs1)C2 [Compound 86, (1S,3S,5S)-N-((4-carbamimidoylthiophen-2-yl)sulfonyl)-5-methyl-2-((4-phenoxy-benzoyl)glycyl)-2-azabicyclo[3.1.0]hexane-3-carboxamide]
< 100 nM | C[C@@]12C[C@@H]1N(C(=O)CNC(=O)c1ccc3c(c1)-c1ccccc1C3(F)F)[C@H](C(=O)NCc1cc(C(=N)N)cs1)C2 [Compound 103, (1S,3S,5S)-N-((4-carbamimidoylthiophen-2-yl)methyl)-2-((9,9-difluoro-9H-fluorene-3-carbonyl)glycyl)-5-methyl-2-azabicyclo[3.1.0]hexane-3-carboxamide]
< 100 nM | C[C@@]12C[C@@H]1N(C(=O)CNC(=O)CCCOc1ccccc1)[C@H](C(=O)NCc1cc(C(=N)N)cs1)C2 [Compound 44, (1S,3S,5S)-N-((4-carbamimidoylthiophen-2-yl)methyl)-5-methyl-2-((4-phenoxy-butanoyl)glycyl)-2-azabicyclo[3.1.0]hexane-3-carboxamide]
< 100 nM | CS(=O)(=O)[C@@H]1C[C@@H](C(=O)NCc2cc(C(=N)N)cs2)N(C(=O)CNC(=O)c2ccc(Oc3ccccc3)cc2)C1 [Compound 46, (2S,4R)-N-((4-carbamimidoylthiophen-2-yl)methyl)-4-(methylsulfonyl)-1-((4-phenoxybenzoyl)glycyl)pyrrolidine-2-carboxamide]
< 100 nM | C[C@@]12C[C@@H]1N(C(=O)CNC(=O)CCCOC1CCCCC1)[C@H](C(=O)NCc1cc(C(=N)N)cs1)C2 [Compound 117]
< 100 nM | CO[C@@H]1C[C@@H](C(=O)N[C@H](C)c2cc(C(=N)N)cs2)N(C(=O)CNC(=O)c2ccc(Oc3ccccc3)cc2)C1 [Compound 185, (2S,4R)-N-((R)-1-(4-carbamimidoylthiophen-2-yl)ethyl)-4-methoxy-1-((4-phenoxybenzoyl)glycyl)pyrrolidine-2-carboxamide]
< 100 nM | N=C(N)c1csc(CNC(=O)[C@@H]2C[C@@]3(CN2C(=O)CNC(=O)CCCOc2ccccc2)CC3(F)F)c1 [Compound 56, (3S,6S)-N-((4-carbamimidoylthiophen-2-yl)methyl)-1,1-difluoro-5-((4-phenoxy-butanoyl)glycyl)-5-azaspiro[2.4]heptane-6-carboxamide]
100 to 1000 nM | C[C@@]12C[C@@H]1N(C(=O)CNC(=O)c1ccc(Oc3ccccc3)cc1)[C@H](C(=O)Nc1ccc3c(C(=N)N)csc3c1)C2 [Compound 237, (1S,3S,5S)-N-(3-carbamimidoylbenzo[b]thiophen-6-yl)-5-methyl-2-((4-phenoxybenzoyl)glycyl)-2-azabicyclo[3.1.0]hexane-3-carboxamide]
100 to 1000 nM | N=C(N)c1csc(CNC(=O)CNC(=O)CNC(=O)c2ccc(Oc3ccccc3)cc2)c1 [Compound 77, N-(2-((2-(((4-carbamimidoylthiophen-2-yl)methyl)amino)-2-oxoethyl)amino)-2-oxoethyl)-4-phenoxybenzamide]
> 1000 nM | CC(C)C[C@@H](NC(=O)[C@@H]1C[C@@H](OC(F)F)CN1C(=O)CNC(=O)c1ccc(Oc2ccccc2)cc1)c1cc(C(=N)N)cs1 [Compound 191, (2S,4R)-N-((R)-1-(4-carbamimidoylthiophen-2-yl)-3-methylbutyl)-4-(difluoromethoxy)-1-((4-phenoxybenzoyl)glycyl)pyrrolidine-2-carboxamide]
< 100 nM | Cc1cccc([C@H]2C[C@@H](C(=O)NCc3cc(C(=N)N)cs3)N(C(=O)CNC(=O)CCCOc3ccccc3)C2)c1 [Compound 170, (2S,4R)-N-((4-carbamimidoylthiophen-2-yl)methyl)-1-((4-phenoxybutanoyl)glycyl)-4-(m-tolyl)pyrrolidine-2-carboxamide]
< 100 nM | CC(CCC(=O)NCC(=O)N1CC2(C[C@H]1C(=O)NCc1cc(C(=N)N)cs1)OCCO2)Oc1ccccc1 (stereo partly drawn) [Compound 97, (8S)-N-((4-carbamimidoylthiophen-2-yl)methyl)-7-((4-phenoxypentanoyl)glycyl)-1,4-dioxa-7-azaspiro[4.4]nonane-8-carboxamide]
< 100 nM | N=C(N)c1csc(CNC(=O)[C@@H]2CC3(COC3)CN2C(=O)CNC(=O)c2ccc(Oc3ccccc3)cc2)c1 [Compound 262, (S)-N-((4-carbamimidoylthiophen-2-yl)methyl)-6-((4-phenoxybenzoyl)glycyl)-2-oxa-6-azaspiro[3.4]octane-7-carboxamide]
< 100 nM | N=C(N)c1csc(CNC(=O)[C@@H]2C[C@@H](C3CCCC3)CN2C(=O)CNC(=O)c2ccc(Oc3ccccc3)cc2)c1 [Compound 54, (2S,4S)-N-((4-carbamimidoylthiophen-2-yl)methyl)-4-cyclopentyl-1-((4-phenoxy-benzoyl)glycyl)pyrrolidine-2-carboxamide]
> 1000 nM | CCCCCCOC(=O)/N=C(\N)c1csc(CNC(=O)[C@@H]2C[C@]3(C)C[C@@H]3N2C(=O)CNC(=O)c2ccc(Oc3ccccc3)cc2)c1 [Compound 12, hexyl ((Z)-amino(5-(((1S,3S,5S)-5-methyl-2-((4-phenoxybenzoyl)glycyl)-2-azabicyclo-[3.1.0]hexane-3-carboxamido)methyl)thiophen-3-yl)methylene)carbamate]
> 1000 nM | C[C@@]12C[C@@H]1N(C(=O)CNC(=O)c1ccc(Oc3ccccc3)cc1)[C@H](C(=O)NCc1cc(/C(N)=N/S(N)(=O)=O)cs1)C2 [Compound 205, (1S,3S,5S)-5-methyl-2-((4-phenoxybenzoyl)glycyl)-N-((4-(N-sulfamoylcarbamimidoyl)thiophen-2-yl)methyl)-2-azabicyclo[3.1.0]hexane-3-carboxamide]
< 100 nM | C[C@H](Oc1ccc(C(=O)NCC(=O)N2[C@H]3C[C@@]3(C)C[C@H]2C(=O)NCc2cc(C(=N)N)cs2)cc1)c1ccccc1 [Compound 212, (1S,3S,5S)-N-((4-carbamimidoylthiophen-2-yl)methyl)-5-methyl-2-((4-((S)-1-phenylethoxy)benzoyl)glycyl)-2-azabicyclo[3.1.0]hexane-3-carboxamide]
< 100 nM | C[C@@H](NC(=O)[C@@H]1CC2(CN1C(=O)CNC(=O)c1ccc(C(=O)c3ccccc3)cc1)OCCO2)c1cc(C(=N)N)cs1 [Compound 219, (S)-7-((4-benzoylbenzoyl)glycyl)-N-((R)-1-(4-carbamimidoylthiophen-2-yl)ethyl)-1,4-dioxa-7-azaspiro[4.4]nonane-8-carboxamide]
< 100 nM | N=C(N)c1csc(CNC(=O)[C@@H]2C[C@H](c3ccccc3)CN2C(=O)CNC(=O)CCCOc2ccccc2)c1 [Compound 157, (2S,4R)-N-((4-carbamimidoylthiophen-2-yl)methyl)-1-((4-phenoxybutanoyl)glycyl)-4-phenylpyrrolidine-2-carboxamide]
< 100 nM | N=C(N)c1csc(CNC(=O)[C@@H]2C[C@@H](OC3CC3)CN2C(=O)CNC(=O)c2ccc(Oc3ccccc3)cc2)c1 [Compound 110, (2S,4R)-N-((4-carbamimidoylthiophen-2-yl)methyl)-4-cyclopropoxy-1-((4-phenoxy-benzoyl)glycyl)pyrrolidine-2-carboxamide]
< 100 nM | C[C@@]12C[C@@H]1N(C(=O)CNC(=O)c1ccc(Oc3ccccc3)cc1)[C@H](C(=O)NC1(c3cc(C(=N)N)cs3)CC1)C2 [Compound 41, (1S,3S,5S)-N-(1-(4-carbamimidoylthiophen-2-yl)cyclopropyl)-5-methyl-2-((4-phenoxybenzoyl)glycyl)-2-azabicyclo[3.1.0]hexane-3-carboxamide]
< 100 nM | N=C(N)c1csc(CNC(=O)[C@@H]2CC(OC(F)(F)F)CN2C(=O)CNC(=O)c2ccc(Oc3ccccc3)cc2)c1 (stereo in doubt) [Compound 247, (2S,4S)-N-((4-carbamimidoylthiophen-2-yl)methyl)-1-((4-phenoxybenzoyl)glycyl)-4-(trifluoromethoxy)pyrrolidine-2-carboxamide]
< 100 nM | N=C(N)c1csc(C(NC(=O)[C@@H]2C[C@@H](OC(F)F)CN2C(=O)CNC(=O)c2ccc(Oc3ccccc3)cc2)C(=O)O)c1 (stereo partly drawn) [Compound 190, 2-(4-carbamimidoylthiophen-2-yl)-2-((2S,4R)-4-(difluoromethoxy)-1-((4-phenoxybenzoyl)glycyl)pyrrolidine-2-carboxamido)acetic acid]
< 100 nM | COC[C@@]1(F)C[C@@H](C(=O)NCc2cc(C(=N)N)cs2)N(C(=O)CNC(=O)CCCOc2ccccc2)C1 [Compound 72, (2S,4R)-N-((4-carbamimidoylthiophen-2-yl)methyl)-4-fluoro-4-(methoxymethyl)-1-((4-phenoxybutanoyl)glycyl)pyrrolidine-2-carboxamide]
< 100 nM | N=C(N)c1csc(CNC(=O)[C@@H]2C[C@]3(CN2C(=O)CNC(=O)c2ccc(Oc4ccccc4)cc2)CC3(F)F)c1 [Compound 22, (3R,6S)-N-((4-carbamimidoylthiophen-2-yl)methyl)-1,1-difluoro-5-((4-phenoxy-benzoyl)glycyl)-5-azaspiro[2.4]heptane-6-carboxamide]
